Key:
Assay type in all cases: cell-based
Conditions in all cases: after 10, 20, 40 and 60 minutes at all dilutions 1:100, 1:200, 1:400, 1:800
[1] = system: Staphylococcus aureus; assay: Antimicrobial screening by agar dilution, Staphylococcus aureus
Description: (§1) The antimicrobial properties of the 4,5-bis(4-bromophenyl)-1-hexyl-2-(4-hydroxy-3-dimethoxyphenyl)-1H-imidazole was studied by the method of agar dilution. Test solutions of each compound was prepared in concentration of 1% using dimethylformamide as a solvent then they were diluted in physiological solution to obtain the final experimental dilutions 1: 100, 1:200, 1:400, 1:800. The effect of these substances were compared with furacillin in a controlled study. The testing microbes used were gram positive bacteria Staphylococcus aureus, gram negative bacteria Pseudomonas aeruginosa and Escherichia coli and Candida albicans fungi were taken. The experiments used for this survey were meat-pentonlu agar (EPA) for cultivation of bacteria and Saburo environment for fungi. Each experiment used 1 ml of test solution on each plate 500 min. Add 2 drops of emulsified with microbes feel. All experimental samples were taken from the agar after 10, 20, 40, 60 minutes in the environment on the basis of Patrk planted. Bacteria were cultivated at a temperature of 37° C. for 1 day and the mushroom was kept in a thermostat for […] at a temperature of 28° C. Then results were checked.

[2] = system: Escherichia coli; assay: Antimicrobial screening by agar dilution, Escherichia coli
Description: as §1

[3] = system: Pseudomonas aeruginosa; assay: Antimicrobial screening by agar dilution, Pseudomonas aeruginosa
Description: as §1

[4] = system: Candida albicans; assay: Antimicrobial (antifungal) screening by agar dilution, Candida albicans
Description: as §1

Measured: inhibition activity (summary in words)

CCCCCCn1c(-c2ccc(O)c(OC)c2)nc(-c2ccc(Br)cc2)c1-c1ccc(Br)cc1 [4,5-bis(4-bromophenyl)-1-hexyl-2-(4-hydroxy-3-dimethoxyphenyl)-1H-imidazole]
highest inhibition activity: all assays above
